PubChem BioAssay AID390 (SGCOxCompounds, 2006)

The molecules below were run against Serine/threonine-protein kinase PAK 5 (Homo sapiens) (UniProt Q9P286) (assay: PAK5 binders by thermal shift, biophysical, DSF, SYPRO orange, recombinant protein (AID 390)). Conditions: at 10 µM, hits give high values.
Sequence of Serine/threonine-protein kinase PAK 5 (Homo sapiens) (Q9P286 whole entry, looked up): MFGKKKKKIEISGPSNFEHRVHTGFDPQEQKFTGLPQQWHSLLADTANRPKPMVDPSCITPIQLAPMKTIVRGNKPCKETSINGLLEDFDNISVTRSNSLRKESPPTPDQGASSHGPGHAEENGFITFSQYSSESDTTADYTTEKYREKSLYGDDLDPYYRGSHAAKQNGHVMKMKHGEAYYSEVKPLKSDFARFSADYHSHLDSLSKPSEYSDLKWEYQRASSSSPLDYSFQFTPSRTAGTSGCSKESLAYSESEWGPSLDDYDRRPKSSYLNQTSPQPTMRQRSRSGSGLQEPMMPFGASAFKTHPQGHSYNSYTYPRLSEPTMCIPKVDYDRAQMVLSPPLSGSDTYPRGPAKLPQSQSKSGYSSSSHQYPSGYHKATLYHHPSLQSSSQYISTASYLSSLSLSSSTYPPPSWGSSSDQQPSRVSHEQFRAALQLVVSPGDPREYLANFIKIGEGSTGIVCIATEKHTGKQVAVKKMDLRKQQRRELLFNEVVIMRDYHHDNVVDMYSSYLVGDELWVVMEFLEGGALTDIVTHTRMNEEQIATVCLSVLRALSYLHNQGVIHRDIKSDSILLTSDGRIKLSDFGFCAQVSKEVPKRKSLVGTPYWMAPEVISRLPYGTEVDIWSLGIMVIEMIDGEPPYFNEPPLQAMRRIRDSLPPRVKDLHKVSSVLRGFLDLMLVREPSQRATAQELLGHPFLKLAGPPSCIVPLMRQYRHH

Row | Structure (SMILES) | Tm shift [Celsius]
1 | CC(C)C(CO)Nc1nc(Nc2cccc(Cl)c2)c2ncn(C(C)C)c2n1 (stereo not given) | 4.5
2 | OCC(O)CCO/N=C1/C(c2c(O)[nH]c3ccccc23)=Nc2ccccc21 (stereo not given) | 3.37
3 | NS(=O)(=O)c1ccc(Nc2nc(OCC3CCCCC3)c3[nH]cnc3n2)cc1 | 3.3
4 | O=C1Cc2c([nH]c3ccc(Br)cc23)-c2ccccc2N1 | 3.5
5 | NCCNc1ncc(C(N)=O)c(Nc2cccc(C(F)(F)F)c2)n1 | 5.9
6 | CCN(CC)CCNC(=O)c1c(C)[nH]c(/C=C2\C(=O)Nc3ccc(Cl)cc32)c1C | 4.47
7 | NC(=O)c1ccc(-c2nc(-c3ccc4c(c3)OCCO4)c(-c3ccccn3)[nH]2)cc1 | 4.1
8 | Cc1cc(Nc2nc(-c3ccccc3)nc3ccccc23)n[nH]1 | 4.73
9 | CC(O)(O)C1(O)C[C@@H]2O[C@@]1(C)n1c3ccccc3c3c4c(c5c6ccccc6n2c5c31)C(=O)NC4 (stereo not given in full) | 5.05
10 | CC(=O)n1c(C2=c3ccccc3=NC2=O)c(O)[nH]c1=S | 3.1
11 | Cn1cc(/C=C2\C(=O)Nc3ccc(S(N)(=O)=O)cc32)c2ccccc21 | 4.3
12 | O=Nc1c(-c2c(O)[nH]c3cc(Br)ccc23)[nH]c2ccccc12 | 4.6
13 | CC(C)c1nn(-c2c(Cl)cccc2Cl)c2nc(Cc3ccc(OCCO)cc3)[nH]c(=O)c12 | 3.1
14 | Nc1nc(Nc2ccc(S(N)(=O)=O)cc2)nn1C(=S)Nc1c(F)cccc1F | 5.57
15 | O=C1NC(=O)c2c1c1c3ccccc3n3c1c1c2c2ccccc2n1[C@@H]1CCC3O1 | 3.69
16 | N#CCCc1ccc2c(c1)-c1[nH]c3ccc(-n4oo4)cc3c1CC(=O)N2 | 4.05
17 | O=C1Cc2c([nH]c3ccc(N(O)O)cc23)-c2ccccc2N1 | 3.9
18 | O=Nc1c(-c2c(O)[nH]c3ccccc23)[nH]c2ccccc12 | 4.2
19 | O=C1NCc2c1c1c3ccccc3[nH]c1c1[nH]c3ccccc3c21 | 4.4
20 | CCn1cnc2c(Nc3cccc(Cl)c3)nc(N[C@@H]3CCCC[C@@H]3N)nc21 | 6.75
